Experimental data as given in BindingDB's records for patent US20240059711 (University of Michigan, 2024).
pIC50: −log10 of the molar value.

Target: Protein cereblon (Homo sapiens, UniProt Q96SW2)
Assay: Cereblon Binding Assay
Method: The binding to cereblon (CRBN) was determined using the Cereblon Binding Kit (Cisbio, #64BDCRBNPEG) following the manufacturer's instruction. Briefly, serially diluted compounds were incubated with GST-tagged wild-type human CRBN protein, XL665-labelled Thalidomide and Europium Cryptate labelled GST antibody at room temperature for about 3 hours. Time Resolved Fluorescence Resonance Energy Transfer (TR-FRET) measurements were acquired on a CALRIOstar plate reader with MARS data analysis software (BMG Labtech), with the following settings: 665/10 nm and 620/10 nm emission, 60 μs delay and 400 μs integration. The TR-FRET ratio was taken as the 665/620 nm intensity ratio.

Chain of Protein cereblon (Q96SW2 whole entry): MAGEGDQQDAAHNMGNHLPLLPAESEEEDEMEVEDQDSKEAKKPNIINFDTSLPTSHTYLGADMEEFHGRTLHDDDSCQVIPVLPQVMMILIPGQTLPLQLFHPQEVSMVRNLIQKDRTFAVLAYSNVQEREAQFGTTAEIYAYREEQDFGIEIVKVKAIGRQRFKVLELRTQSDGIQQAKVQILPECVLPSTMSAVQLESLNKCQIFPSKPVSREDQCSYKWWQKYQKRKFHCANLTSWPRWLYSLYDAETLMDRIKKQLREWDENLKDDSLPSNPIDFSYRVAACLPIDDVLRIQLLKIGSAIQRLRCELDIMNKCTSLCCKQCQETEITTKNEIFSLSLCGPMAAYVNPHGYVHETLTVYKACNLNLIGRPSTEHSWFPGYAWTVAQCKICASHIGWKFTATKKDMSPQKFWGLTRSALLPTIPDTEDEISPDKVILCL

| SMILES | pIC50 |
| --- | --- |
| O=C1CCC(N2Cc3c(ccc4c3O[C@@H](COCc3ccccc3)CO4)C2=O)C(=O)N1 (some centres not stated) [US20240059711, Compound B9] | 6.24 |
| O=C1CCC(N2Cc3c(ccc4c3O[C@H](COCc3ccccc3)CO4)C2=O)C(=O)N1 (some centres not stated) [US20240059711, Compound B10] | 6.10 |
